≈ marks a conversion by molar mass, not a printed value.
How the values were obtained:
[1] = biological target: T1, hA3G degradation mediated by HIV-1 Vif (UniProt P69723+Q9HC16); assay: Screening experiment for up-regulation activity to hA3G (YFP-fused hA3G co-expressed with HIV-1 Vif, fluorescence); type: cell-based, human; details: YFP fluorescence of cells co-expressing Vif and hA3G-YFP; excitation 485 nm, detection 520 nm; averages of duplicates
T1 construct: expressed in transfected cells
From the text: Based on the advances making research on the hA3G degradation mediated by HIV-1 Vif, this invention establishes a high throughput anti-HIV-1 drug screening model using hA3G degradation mediated by HIV-1 Vif as target, to screen small molecule active compounds capable of inhibiting this degradation process. The function principle of this model is that HIV-1 Vif protein and hA3G fused yellow fluorescent protein (YFP) co-expressed in the cells, then the intracellular fluorescence intensity (at […]) decreases owing to the degradation of hA3G caused by Vif and subsequent degradation of YEP fused on hA3G. By means of measuring the change of fluorescent intensity, the influence of the screened compounds on the degradation of hA3G caused by Vif can quantitatively be analyzed. Simultaneously, to differentiate the non-specific inhibitory effect of diverse ubiquitin degradation route in the samples, this invention establishes a recheck model based on the detection of P53 degradation caused by the product of adenovirus early gene, to assure that the positive samples screened out by the proposed model can specifically block the degradation of hA3G caused by Vif.
Screening Experiment for Up-Regulation Activity to hA3G
The cells are picked up and cultured a culture bottle. When the cells grow full of the culture bottle, old culture medium is discarded and the cells are digested with digestion medium. When the cells turn round, the digestion medium is discarded and the culture medium is added in at once, the bottom of the bottle is gently blown with a pipette to make the cells disengage the bottle bottom and disperse into single cell suspension. After counting the cells using blood cell counting chamber, the cell suspension is inoculated into a culture dish for transfection. The medium containing the plasmid to be transfected and the transfection reagents is gently mixed up and incubated at room temperature. The medium is then added into the supernatant of the cell culture and cultured for a certain period of time. The old culture medium is then sucked out, the cells are digested with digestive medium, the digestive medium is subsequently discarded and culture medium is immediately added. The medium is gently blown to disperse the cells into single cell suspension. After counting the cells using blood cell counting chamber, the cells are ready for inoculation.
Samples of compounds[…]Pure tested compounds are dissolved in DMSO, the solution is diluted with equal proportional distilled water. The diluent is used to test the cell systems.
Sample solution of different concentration is added into the supernatant of a cell culture. After the cells are continuously cultured, old culture medium is sucked out and the cells are blown with PBS buffer until the cells completely disengage from the culture bottle.
The fluorescence intensity values of the cell suspension with test compound samples, positive control samples and negative control samples are respectively measured with fluorometer, the excitation wavelength is 485 nm and the detection wavelength 520 nm. Averages of duplicated measurements are taken as the results.
The measured fluorescence intensity values of the negative control samples (blink sample) subtracted from those of test compound samples, the results are taken as YFP fluorescence of different groups. Relative fluorescence intensity=fluorescence intensity of a test sample group/fluorescence intensity of the positive control group×100% Inhibition rate of degradation=(test sample group−negative control group)/(positive control group−negative control group)×100%

HIV-1 [2] = details: HIV-1 P24 antigen in supernatant 4 days (96 h) after addition of compounds
Procedure: (§1) The inhibitory activities of the compounds proposed in this invention to HIV-1 were measured using HIV-1 P24 antigen kit.
(§2) DMSO solutions of samples of test compounds listed in Table 2 diluted to 8 different concentrations and the solution of the positive control AZT (azidothymidine, 0.15 ng/ml) are respectively added into 96 well plates, duplications are set for each of the dilutions, and negative control samples are also made. Aliquots of 100 μl 2×10^5 cell/ml suspension are inoculated onto the 96 well cell culture plates and cultured in an incubator under a condition of 37° C., 5% CO2 and saturated humidity. The pathologic changes of the cells are observed every day. The HIV-1 P24 antigen contents in supernatant cells are measured in 4 days (96 h) after addition of the test compounds according to the operation procedure provided by the HIV-1 P24 antigen kit.

HIV-1 [3] = assay: microbe, parasite or virus in culture; details: Human immunodeficiency virus 1, 96 h, read-out: inhibitory activity to HIV-1, IC50
Procedure: as §1, §2

T1 sequence (P69723 whole entry, the tested form may be a part): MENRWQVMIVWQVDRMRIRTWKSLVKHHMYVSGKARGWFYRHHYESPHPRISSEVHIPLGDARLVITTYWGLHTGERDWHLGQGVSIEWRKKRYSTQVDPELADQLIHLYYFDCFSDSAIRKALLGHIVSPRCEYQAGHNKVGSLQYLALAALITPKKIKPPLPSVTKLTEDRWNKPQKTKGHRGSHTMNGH
T1 sequence (Q9HC16 whole entry, the tested form may be a part): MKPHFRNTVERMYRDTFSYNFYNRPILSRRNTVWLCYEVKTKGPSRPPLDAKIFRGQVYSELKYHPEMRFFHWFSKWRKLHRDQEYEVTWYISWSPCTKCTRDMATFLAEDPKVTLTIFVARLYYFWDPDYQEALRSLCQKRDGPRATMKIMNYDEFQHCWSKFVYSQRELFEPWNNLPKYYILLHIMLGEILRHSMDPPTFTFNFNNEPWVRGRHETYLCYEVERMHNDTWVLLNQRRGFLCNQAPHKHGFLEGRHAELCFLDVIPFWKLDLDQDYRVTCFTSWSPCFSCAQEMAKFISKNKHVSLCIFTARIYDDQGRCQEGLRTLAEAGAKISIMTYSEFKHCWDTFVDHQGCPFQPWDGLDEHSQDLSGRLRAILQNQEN

Row | Compound | hA3G up-regulation activity (%) [1] [%] | inhibitory activity to HIV-1, IC50 (HIV-1 [2]) [µg/mL] | IC50 (HIV-1 [3]) [µg/mL]
1 | 3-amino-4-methoxybenzanilide [Compound 2621] | 36.2 | <0.0137 | 
2 | COc1ccc(C(=O)Nc2cc(OC)c(OC)c(OC)c2)cc1NC(=O)C(C)Br (stereo not shown) [Compound 26] | 42.7 |  | 0.0203 (≈ 0.0434 µM)
3 | COc1ccc(C(=O)Oc2cc(OC)c(OC)c(OC)c2)cc1NC(=O)C(C)Br (stereo not shown) [Compound 35] | 44.9 |  | 0.0223 (≈ 0.0476 µM)
4 | CCC(=O)Nc1cc(C(=O)Nc2ccc(OC(F)(F)F)cc2)ccc1C [Compound 69, N-(4′-trifluoromethoxyphenyl)-3-propionamido-4-methylbenzamide] | 31.2 |  | 
5 | CCC(=O)Nc1cc(C(=O)Nc2ccc(OC(F)(F)F)cc2)ccc1F [Compound 70] | 24.7 |  | 
6 | COc1cc(OC(=O)c2cc(Cl)cc(NC(C)=O)c2)cc(OC)c1OC [Compound 72] | 24.3 |  | 
7 | COc1cc(OC(=O)c2cc(NC(C)=O)cc(C(F)(F)F)c2)cc(OC)c1OC [Compound 73, 3′,4′,5′-trimethoxyphenyl 3-acetamido-5-trifluoromethylbenzoate] | 29.0 |  | 
8 | COc1cc(NC(=O)c2cc(NC(C)=O)cc(C(F)(F)F)c2)cc(OC)c1OC [Compound 74] | 8.5 |  | 
9 | CCC(=O)Nc1cc(C(=O)Nc2cc(OC)c(OC)c(OC)c2)cc(OC)c1F [Compound 75, N-(3′,4′,5′-trimethoxyphenyl)-3-propionamido-4-fluoro-5-methoxybenzamide] | −1.1 |  | 
10 | CCC(=O)Nc1cc(C(=O)Nc2cc(OC)c(OC)c(OC)c2)cc(F)c1OC [Compound 77] | 14.9 |  | 
11 | CCC(=O)Nc1cc(C(=O)Nc2ccc(OC)c(F)c2)ccc1OC [Compound 78] | 8.8 |  | 
12 | CCC(=O)Nc1cc(C(=O)Nc2cc(OC)c(OC)c(OC)c2)c(F)cc1OC [Compound 79, N-(3′,4′,5′-trimethoxyphenyl)-3-propionamido-4-methoxy-6-fluorobenzamide] | 21.6 |  | 
13 | CCC(=O)Nc1cc(C(=O)Nc2ccc(N)c(F)c2)ccc1OC [Compound 80, N-(3′-fluoro-4′-aminophenyl)-3-propionamido-4-methoxybenzamide] | 37.1 |  | 
14 | CCC(=O)Nc1cc(C(=O)Nc2cc(OC)c(NC)c(OC)c2)ccc1OC [Compound 81] | 14.4 |  | 
15 | CCC(=O)Nc1cc([S+]([O-])Nc2cc(OC)c(OC)c(OC)c2)ccc1OC (stereo not shown) [Compound 82] | 28.5 |  | 
16 | CCC(=O)Nc1cc(S(=O)(=O)Nc2cc(OC)c(OC)c(OC)c2)ccc1OC [Compound 83, N-(3′,4′,5′-trimethoxyphenyl) 3-propionamido-4-methoxybenzenesulfamide] | 31.0 |  | 
17 | CCC(=O)Nc1cc(S(=O)(=O)Oc2cc(OC)c(OC)c(OC)c2)ccc1OC [Compound 84, 3′,4′,5′-trimethoxyphenyl 3-propionamido-4-methoxybenzenesulfonate] | 9.0 |  | 
18 | COc1ccc(S(=O)(=O)Nc2cc(OC)c(OC)c(OC)c2)cc1N [Compound 85, N-(3′,4′,5′-trimethoxyphenyl)-3-amino-4-methoxybenzenesulfonamide] | 6.8 |  | 
19 | CCC(=O)Oc1cc(C(=O)Nc2cc(OC)c(OC)c(OC)c2)ccc1OC [Compound 86] | 20.3 |  | 
20 | COc1ccc(C(=O)Nc2cc(OC)c(OC)c(OC)c2)cc1O [Compound 87, N-(3′,4′,5′-trimethoxyphenyl)-3-hydroxyl-4-methoxybenzamide] | 19.7 |  | 
21 | CCC(=O)Nc1cc(NNc2cc(OC)c(OC)c(OC)c2)ccc1OC [Compound 89] | 31.3 |  | 
22 | COc1ccc(S(=O)(=O)Nc2cc(OC)c(OC)c(OC)c2)cc1O [Compound 90] | 28.2 |  | 

Row | Compound | hA3G up-regulation activity (%) [1] [%] | inhibitory activity to HIV-1, IC50 (HIV-1 [2]) [µg/mL] | IC50 (HIV-1 [3]) [µg/mL]
23 | CCC(=O)Nc1cc(NS(=O)(=O)c2cc(OC)c(OC)c(OC)c2)ccc1OC [Compound 91, N-(3′-propionamido-4′-methoxyphenyl)-(3,4,5-trimethoxy)benzenesulfonamide] | 16.6 |  | 
24 | CCC(=O)Nc1cc(NS(=O)(=O)c2cc(OC)nc(OC)n2)ccc1OC [Compound 92] | 23.7 |  | 
25 | CCC(=O)Nc1cc(S(=O)(=O)Nc2cc(OC)nc(OC)n2)ccc1OC [Compound 93] | 34.2 |  | 
26 | CCC(=O)Nc1cc(S(=O)(=O)Nc2ccc(OC)c(OC)c2)ccc1OC [Compound 94] | 16.1 |  | 
27 | CCC(=O)Nc1cc(S(=O)(=O)Nc2ccc(OC)c(OC)c2)cc(F)c1OC [Compound 95] | 8.7 |  | 
28 | CCC(=O)Nc1cc(S(=O)(=O)Nc2ccc(NC)c(OC)c2)ccc1OC [Compound 96] | 6.9 |  | 
29 | CCC(=O)Nc1cc(C(=O)Nc2ccc(OC)c(S(N)(=O)=O)c2)ccc1OC [Compound 97] | 6.4 |  | 
30 | CNc1cc(C(=O)Nc2ccc(S(N)(=O)=O)c(F)c2)ccc1OC [Compound 98, N-(3′-fluoro-4′-aminosulfonylphenyl)-3-methylamino-4-methoxybenzamide] | 5.8 |  | 
31 | CCC(=O)Nc1cc(C(=O)Nc2ccc(S(N)(=O)=O)c(OC)c2)ccc1OC [Compound 99] | 23.6 |  | 
32 | CCC(=O)Nc1cc(C(=O)Nc2ccc(S(N)(=O)=O)c(F)c2)ccc1OC [Compound 100] | 13.6 |  | 
33 | COc1ccc(C(=O)Nc2cc(OC)c(OC)c(OC)c2)cc1NS(C)(=O)=O [Compound 101] | 22.1 |  | 
34 | COc1ccc(C(=O)Nc2ccc(OC)c(OC)c2)cc1NS(C)(=O)=O [Compound 102] | 10.3 |  | 
35 | COc1ccc(C(=O)Oc2cc(OC)c(OC)c(OC)c2)cc1NS(C)(=O)=O [Compound 103, 3′,4′,5′-trimethoxyphenyl 3-methanesulfamido-4-methoxybenzoate] | 26.1 |  | 
36 | CCC(=O)Nc1cc(C(=O)Nc2cc(OC)c(OC)c(OC)c2)ccc1OC [Compound 261, N-(3′,4′,5′-trimethoxyphenyl) 3-propionamido-4-methoxybenzamide] | 43.9 |  | 0.0227 (≈ 0.0584 µM)
37 | COc1ccc(C(=O)Nc2cc(OC)c(OC)c(OC)c2)cc1N [Compound 262, N-(3′,4′,5′-trimethoxyphenyl) 3-amino-4-methoxybenzamide] | 36.2 |  | 0.0244 (≈ 0.0734 µM)
38 | COc1ccc(C(=O)Nc2cc(OC)c(OC)c(OC)c2)cc1NC(=O)C(F)(F)F [Compound 263, N-(3′,4′,5′-trimethoxyphenyl)-3-trifluoroacetamido-4-methoxybenzamide] | 24.4 |  | < 0.0137
39 | CCC(=O)Nc1cc(C(=O)Oc2cc(OC)c(OC)c(OC)c2)ccc1OC [Compound 351, 3′,4′,5′-trimethoxyphenyl 3-propionamido-4-methoxybenzoate] | 36.7 |  | 0.0299 (≈ 0.0768 µM)
40 | COc1ccc(C(=O)Oc2cc(OC)c(OC)c(OC)c2)cc1NC(=O)C(F)(F)F [Compound 353, 3,4,5-trimethoxyphenyl 3-trifluoroacetamido-4-methoxybenzoate] | 39.0 |  | 
41 | CCC(=O)Nc1cc(C(=O)Nc2ccc(OC)cc2)ccc1OC [Compound 2611, N-(4′-methoxyphenyl)-3-propionamido-4-methoxybenzamide] | 28.9 |  | 0.017 (≈ 0.0518 µM)
42 | CCC(=O)Nc1cc(C(=O)Nc2ccc([N+](=O)[O-])cc2)ccc1OC [Compound 2612, N-(4′-nitrophenyl)-3-propionamido-4-methoxybenzamide] | 22.3 |  | 
43 | CCC(=O)Nc1cc(C(=O)Nc2ccc(Cl)cc2)ccc1OC [Compound 2613, N-(4′-chlorophenyl)-3-propionamido-4-methoxybenzamide] | 27.8 |  | 0.0138 (≈ 0.0415 µM)

Source: patent publication US8710098B2, “Group of amino substituted benzoyl derivatives and their preparation and their use” (priority 2008, dated 2014)
